Laboratory results taken from patent US9783532B2, “Molecules having certain pesticidal utilities, and intermediates, compositions, and processes related thereto” (Dow AgroSciences LLC, priority 2013, dated 2017).

Assays:
Type in all cases: in vivo
[1] = tested on: Cabbage Looper (Trichoplusia ni) ("CL"); test: Bioassay on cabbage looper (CL), 128-well diet tray assay; conditions: for pest or weed control at 50 µg/cm2: Table ABC (FB), activity rating class, read-out: CL (Biological Results, Insect species); for mortality at 50 µg/cm2: 168 h, 50 μg/cm^2 on artificial diet, second instar CL larvae, 25° C., five to seven days, average of eight wells, read-out: CL % Control (or Mortality) rating
In short: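 Second-instar larvae (one to five per well) placed on artificial diet surface-treated with 50 μg/cm^2 compound in 90:10 acetone-water, dried before infestation. Held 25 °C, 14:10 light-dark for five to seven days; percent mortality scored per well and averaged over eight wells.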

[2] = tested on: Beet Armyworm (Spodoptera exigua) ("BAW"); test: Bioassay on beet armyworm (BAW), 128-well diet tray assay; conditions: for pest or weed control at 50 µg/cm2: Table ABC (FB), activity rating class, read-out: BAW (Biological Results, Insect species); for mortality at 50 µg/cm2: 168 h, 50 μg/cm^2 on artificial diet, second instar BAW larvae, 25° C., five to seven days, average of eight wells, read-out: BAW % Control (or Mortality) rating
In short: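 Second-instar larvae (one to five per well) were placed on artificial diet surface-treated with 50 μg/cm^2 compound applied in 90:10 acetone-water and dried, eight wells per compound. Held at 25° C., 14:10 light-dark for five to seven days; percent mortality was scored per well and averaged over the eight wells.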

[3] = tested on: Yellow Fever Mosquito "YFM" (Aedes aegypti); conditions: for YFM (Biological Results, Insect species): Table ABC (FB), activity rating class; for YFM % Control (or Mortality) rating: about 1 day-old larvae, 96-well plate, room temperature, 3 days
Protocol: Certain molecules disclosed in this document were tested against YFM using procedures described in the following paragraph. In the reporting of the results, the “YFM Rating Table” was used (See Table Section).
Master plates containing 400 μg of a molecule dissolved in 100 μL of dimethyl sulfoxide (DMSO) (equivalent to a 4000 ppm solution) are used. A master plate of assembled molecules contains 15 μL per well. To this plate, 135 μL of a 90:10 wateracetone mixture is added to each well. A robot (Biomek® NXP Laboratory Automation Workstation) is programmed to dispense 15 μL aspirations from the master plate into an empty 96-well shallow plate (“daughter” plate). There are 6 reps (“daughter” plates) created per master. The created daughter plates are then immediately infested with YFM larvae.
The day before plates are to be treated, mosquito eggs are placed in Millipore water containing liver powder to begin hatching (4 g. into 400 mL). After the daughter plates are created using the robot, they are infested with 220 μL of the liver powder/larval mosquito mixture (about 1 day-old larvae). After plates are infested with mosquito larvae, a non-evaporative lid is used to cover the plate to reduce drying. Plates are held at room temperature for 3 days prior to grading. After 3 days, each well is observed and scored based on mortality.

CS/C(=N\C(=O)NCCc1ccc(-c2ncn(-c3ccc(OC(F)(F)F)cc3)n2)cc1)Nc1cc(C)ccc1C(C)C [FB65, (Z)-methyl N-(2-isopropyl-5-methylphenyl)-N′-((4-(1-(4-(trifluoromethoxy)phenyl)-1H-1,2,4-triazol-3-yl)phenethyl)carbamoyl)carbamimidothioate]
pest or weed control at 50 µg/cm2 [1]: 50 to 100%
pest or weed control at 50 µg/cm2 [2]: 50 to 100%
YFM (Biological Results, Insect species) [3]: A (80-100)

Cc1ccc(C(C)C)c(N2/C(=N/C(=O)NCCc3ccc(-c4ncn(-c5ccc(OC(F)(F)F)cc5)n4)cc3)SCC2(C)O)c1 (stereo not drawn) [FB67, (Z)-1-(4-hydroxy-3-(2-isopropyl-5-methylphenyl)-4-methylthiazolidin-2-ylidene)-3-(4-(1-(4-(trifluoromethoxy)phenyl)-1H-1,2,4-triazol-3-yl)phenethyl)urea]
pest or weed control at 50 µg/cm2 [1]: 50 to 100%
pest or weed control at 50 µg/cm2 [2]: 50 to 100%
YFM (Biological Results, Insect species) [3]: A (80-100)

Cc1ccc(C(C)C)c(N2C(=O)CS/C2=N\C(=O)NCC(Br)c2ccc(-c3ncn(-c4ccc(OC(F)(F)F)cc4)n3)cc2)c1 (stereo not drawn) [FB71, (Z)-1-(2-bromo-2-(4-(1-(4-(trifluoromethoxy)phenyl)-1H-1,2,4-triazol-3-yl)phenyl)ethyl)-3-(3-(2-isopropyl-5-methylphenyl)-4-oxothiazolidin-2-ylidene)urea]
pest or weed control at 50 µg/cm2 [1]: 50 to 100%
pest or weed control at 50 µg/cm2 [2]: 50 to 100%
YFM (Biological Results, Insect species) [3]: A (80-100)

Cc1ccc(N2C(=O)CS/C2=N\C(=O)NCCc2ccc(-c3ncn(-c4ccc(OC(F)(F)F)cc4)n3)cc2)c(C(C)C)c1 [P26, (Z)-1-(3-(2-isopropyl-4-methylphenyl)-4-oxothiazolidin-2-ylidene)-3-(4-(1-(4-(trifluoromethoxy)phenyl)-1H-1,2,4-triazol-3-yl)phenethyl)urea]
mortality at 50 µg/cm2 [1]: 50 to 100%
mortality at 50 µg/cm2 [2]: 50 to 100%
YFM % Control (or Mortality) rating [3]: A (80-100)

Cc1cccc(N2C(=O)CS/C2=N\C(=O)NCCc2ccc(-c3ncn(-c4ccc(OC(F)(F)F)cc4)n3)cc2)c1C(C)C [P27, (Z)-1-(3-(2-isopropyl-3-methylphenyl)-4-oxothiazolidin-2-ylidene)-3-(4-(1-(4-(trifluoromethoxy)phenyl)-1H-1,2,4-triazol-3-yl)phenethyl)urea]
mortality at 50 µg/cm2 [1]: 50 to 100%
mortality at 50 µg/cm2 [2]: 50 to 100%
YFM % Control (or Mortality) rating [3]: A (80-100)

CCCc1ccc(C)cc1N1C(=O)CS/C1=N\C(=O)NCCc1ccc(-c2ncn(-c3ccc(OC(F)(F)F)cc3)n2)cc1 [P29, (Z)-1-(3-(5-methyl-2-propylphenyl)-4-oxothiazolidin-2-ylidene)-3-(4-(1-(4-(trifluoromethoxy)phenyl)-1H-1,2,4-triazol-3-yl)phenethyl)urea]
mortality at 50 µg/cm2 [1]: 50 to 100%
mortality at 50 µg/cm2 [2]: 50 to 100%
YFM % Control (or Mortality) rating [3]: A (80-100)

CC(C)(C)c1ccccc1N1C(=O)CS/C1=N\C(=O)NCCc1ccc(-c2ncn(-c3ccc(OC(F)(F)F)cc3)n2)cc1 [P30, (Z)-1-(3-(2-(tert-butyl)phenyl)-4-oxothiazolidin-2-ylidene)-3-(4-(1-(4-(trifluoromethoxy)phenyl)-1H-1,2,4-triazol-3-yl)phenethyl)urea]
mortality at 50 µg/cm2 [1]: 50 to 100%
mortality at 50 µg/cm2 [2]: 50 to 100%
YFM % Control (or Mortality) rating [3]: A (80-100)

CCc1cc(C)ccc1N1C(=O)CS/C1=N\C(=O)NCCc1ccc(-c2ncn(-c3ccc(OC(F)(F)F)cc3)n2)cc1 [P31, (Z)-1-(3-(2-ethyl-4-methylphenyl)-4-oxothiazolidin-2-ylidene)-3-(4-(1-(4-(trifluoromethoxy)phenyl)-1H-1,2,4-triazol-3-yl)phenethyl)urea]
mortality at 50 µg/cm2 [1]: 50 to 100%
mortality at 50 µg/cm2 [2]: 50 to 100%
YFM % Control (or Mortality) rating [3]: A (80-100)

CC(Cc1ccc(-c2ncn(-c3ccc(OC(F)(F)F)cc3)n2)cc1)NC(=O)/N=C1\SCC(=O)N1c1ccc(F)cc1C(C)C (stereo not drawn) [P33, (Z)-1-(3-(4-fluoro-2-isopropylphenyl)-4-oxothiazolidin-2-ylidene)-3-(1-(4-(1-(4-(trifluoromethoxy)phenyl)-1H-1,2,4-triazol-3-yl)phenyl)propan-2-yl)urea]
mortality at 50 µg/cm2 [1]: 50 to 100%
mortality at 50 µg/cm2 [2]: 50 to 100%
YFM % Control (or Mortality) rating [3]: A (80-100)

CCc1cccc(C)c1N1C(=O)CS/C1=N\C(=O)NC(C)Cc1ccc(-c2ncn(-c3ccc(OC(F)(F)F)cc3)n2)cc1 (stereo not drawn) [P42, (Z)-1-(3-(2-ethyl-1-methylphenyl)-4-oxothiazolidin-2-ylidene)-3-(1-(4-(1-(4-(trifluoromethoxy)phenyl)-1H-1,2,4-triazol-3-yl)phenyl)propan-2-yl)urea]
mortality at 50 µg/cm2 [1]: 50 to 100%
mortality at 50 µg/cm2 [2]: 50 to 100%
YFM % Control (or Mortality) rating [3]: A (80-100)

COc1ccc(N2C(=O)CS/C2=N\C(=O)NC(C)Cc2ccc(-c3ncn(-c4ccc(OC(F)(F)F)cc4)n3)cc2)c(C)c1 (stereo not drawn) [P45, (Z)-1-(3-(4-methoxy-2-methylphenyl)-4-oxothiazolidin-2-ylidene)-3-(1-(4-(1-(4-(trifluoromethoxy)phenyl)-1H-1,2,4-triazol-3-yl)phenyl)propan-2-yl)urea]
mortality at 50 µg/cm2 [1]: 50 to 100%
mortality at 50 µg/cm2 [2]: 50 to 100%
YFM % Control (or Mortality) rating [3]: A (80-100)

COc1cc(C)c(N2C(=O)CS/C2=N\C(=O)NCCc2ccc(-c3ncn(-c4ccc(OC(F)(F)F)cc4)n3)cc2)c(C)c1 [P47, (Z)-1-(3-(4-methoxy-2,6-dimethylphenyl)-4-oxothiazolidin-2-ylidene)-3-(4-(1-(4-(trifluoromethoxy)phenyl)-1H-1,2,4-triazol-3-yl)phenethyl)urea]
mortality at 50 µg/cm2 [1]: 50 to 100%
mortality at 50 µg/cm2 [2]: 50 to 100%
YFM % Control (or Mortality) rating [3]: A (80-100)

CCc1ccc(C)cc1N1C(=O)CS/C1=N\C(=O)NCCc1ccc(-c2ncn(-c3ccc(OC(F)(F)F)cc3)n2)cc1 [P49, (Z)-1-(3-(2-ethyl-5-methylphenyl)-4-oxothiazolidin-2-ylidene)-3-(4-(1-(4-(trifluoromethoxy)phenyl)-1H-1,2,4-triazol-3-yl)phenethyl)urea]
mortality at 50 µg/cm2 [1]: 50 to 100%
mortality at 50 µg/cm2 [2]: 50 to 100%
YFM % Control (or Mortality) rating [3]: A (80-100)

CCc1cccc(C)c1N1C(=O)CS/C1=N\C(=O)NCCc1ccc(-c2ncn(-c3ccc(OC(F)(F)F)cc3)n2)cc1 [P50]
mortality at 50 µg/cm2 [1]: 50 to 100%
mortality at 50 µg/cm2 [2]: 50 to 100%
YFM % Control (or Mortality) rating [3]: A (80-100)

COc1ccc(C(C)C)c(N2C(=O)CS/C2=N\C(=O)NCCc2ccc(-c3ncn(-c4ccc(C(F)(F)F)cc4)n3)cc2)c1 [P53, (Z)-1-(3-(2-isopropyl-5-methoxyphenyl)-4-oxothiazolidin-2-ylidene)-3-(4-(4-(1-(4-trifluoromethyl)phenyl)-1H-1,2,4-triazol-3-yl)phenethyl)urea]
mortality at 50 µg/cm2 [1]: 50 to 100%
mortality at 50 µg/cm2 [2]: 50 to 100%
YFM % Control (or Mortality) rating [3]: A (80-100)

Cc1ccc(C(C)C)c(N2C(=O)C(C)S/C2=N\C(=O)NCCc2ccc(-c3ncn(-c4ccc(OC(F)(F)F)cc4)n3)cc2)c1 (stereo not drawn) [P57, (Z)-1-(3-(2-isopropyl-5-methylphenyl)-5-methyl-4-oxothiazolidin-2-ylidene)-3-(4-(1-(4-(trifluoromethoxy)phenyl)-1H-1,2,4-triazol-3-yl)phenethyl)urea]
mortality at 50 µg/cm2 [1]: 50 to 100%
mortality at 50 µg/cm2 [2]: 50 to 100%
YFM % Control (or Mortality) rating [3]: A (80-100)

Cc1ccc(C(C)C)c(-n2c(C)cs/c2=N\C(=O)NCCc2ccc(-c3ncn(-c4ccc(OC(F)(F)F)cc4)n3)cc2)c1 [P65, (Z)-1-(3-(2-isopropyl-5-methylphenyl)-4-methylthiazol-2(3H)-ylidene)-3-(4-(1-(4-(trifluoromethoxy)phenyl)-1H-1,2,4-triazol-3-yl)phenethyl)urea]
mortality at 50 µg/cm2 [1]: 50 to 100%
mortality at 50 µg/cm2 [2]: 50 to 100%
YFM % Control (or Mortality) rating [3]: A (80-100)

Cc1ccc(C(C)C)c(N2C(=O)CS/C2=N\C(=O)NC(C)C(C)c2ccc(-c3ncn(-c4ccc(OC(F)(F)F)cc4)n3)cc2)c1 (stereo not drawn) [P66, P353, (Z)-1-(3-(2-isopropyl-5-methylphenyl)-4-oxothiazolidin-2-ylidene)-3-(3-(4-(1-(4-(trifluoromethoxy)phenyl)-1H-1,2,4-triazol-3-yl)phenyl)butan-2-yl)urea]
mortality at 50 µg/cm2 [1]: 50 to 100%
mortality at 50 µg/cm2 [2]: 50 to 100%
YFM % Control (or Mortality) rating [3]: A (80-100)

CCc1cccc(C)c1N1C(=O)CS/C1=N\C(=O)NCCCc1ccc(-c2ncn(-c3ccc(OC(F)(F)F)cc3)n2)cc1 [P101, (Z)-1-(3-(2-ethyl-6-methylphenyl)-4-oxothiazolidin-2-ylidene)-3-(3-(4-(1-(4-(trifluoromethoxy)phenyl)-1H-1,2,4-triazol-3-yl)phenyl)propyl)urea]
mortality at 50 µg/cm2 [1]: 50 to 100%
mortality at 50 µg/cm2 [2]: 0 to 50%
YFM % Control (or Mortality) rating [3]: D (No activity noticed in this bioassay)
